{"source": "patent US11464751B2", "about": "“Use of fluoroethylnormemantine for the prevention and treatment of anxiety” (REST THERAPEUTICS, priority 2017, dated 2022)", "key": {"naive rats (Wistar)": {"system": "naive rats (Wistar)", "test": "Open-field test with light gradient", "assay_type": "in vivo, rat", "description": "Thus, to test state anxiety, several animal models are commonly used and have been validated by numerous studies: • open field test: This consists of forcibly exposing the animal (rat or mouse) to a new environment and observing its behavior. […] Locomotor activity and behavior are then assessed by recording the number of crossings of the grid lines, the frequency of retreats, the number of entries and the time spent in the central squares. This animal model is considered a good model of “normal” anxiety when adapting to a new environment. It has good predictability of human response to treatment (L. Prut, European Journal of Pharmacology 463 (2003) 3-33). The open-field test is also useful, when it is prolonged (behavioral recording time over 2 hours), as it allows monitoring the motor activity of the animals and thus their state of wakefulness, whereas measurements at short times give information on anxiety. • the light-dark box test: another animal model of anxiety is based on the aversive properties of an open-field space and on the comparison of exploratory activities in a lit compartment and in a dark compartment under the influence of anxiolytic substances (M Bourin, European Journal of Pharmacology 463 (2003) 55-65). This paradigm is based on rodents' innate aversion to bright places and on rodents' spontaneous exploratory behavior in response to stressful environments (new environment or light). The test device is divided into two compartments, one is small, dark and safe, the second is large, bright and stressful. This paradigm allows the prediction of anxiolytic or anxiogenic drug-like activities in mice. Passages between each compartment are a cue of exploration activity, while the time spent in each compartment reflects aversion. Anxiolytics, effective in humans, classic (benzodiazepines) as well as more recent anxiolytic compounds (serotonergic drugs or drugs acting on neuropeptide receptors) can be detected by this animal model which has the advantage of being simple and quick to use. • The open-field test with light gradient: the two models described above can be judiciously coupled in order to check the anxiolytic potential of a molecule, by eliminating the “burrow” effect induced by the presence of the dark compartment.\nIn the following examples, the effects of memantine, propranolol and fluoroethylnormemantine (FENM, the subject of the present invention) are studied in naive rats (Wistar) subjected to various tests related to depression or anxiety and then compared.\nThe test substances are administered to rats intraperitoneally in a volume of 5 ml/kg, 30 minutes before the behavioral tests are performed.\nThe injected solutions contain either of the molecules in the form of one of their salts, a hydrochloride (memantine·HCl and FENM·HCl) for the nitrogen derivatives and as such for propranolol, at the concentrations indicated below in a mixture of 95% (NaCl 0.9% ww in water)/5% ethanol. In each experiment, the dose per kilogram is referenced.\nFor each paradigm, and each solution tested, 12 rats are subjected to injection and behavioral testing. The control solution is a saline solution.\nIn this example the light-dark box test was modified by eliminating the compartmentalization of the box and using a high-intensity light gradient (600 lux). As it is based on rodents' innate aversion to light, the increase in time spent in the area closest to the light source is therefore considered to reflect a lower level of anxiety.\nThe animals are exposed to a 12-minute sequence, broken down into three parts, 4 minutes in darkness (ambient light of 5 lux), 4 minutes in the presence of the light gradient and 4 minutes again in darkness. Displacements are recorded in the same way as for the open-field test. The field of view is divided into 4 zones numbered from 1 to 4 according to the increasing distance from the light source."}, "NMDA receptor": {"target": "NMDA receptor", "test": "Affinity with the NMDA receptor", "assay_type": "binding", "conditions": "compared with memantine"}}}
{"smiles": "NC12CC3CC(C1)CC(CCF)(C3)C2", "values": [{"measurement": "Percentage of time spent in the area closest to the light source", "setting": "naive rats (Wistar); 5 mg/kg i.p., Dark 1 (Habituation)", "result": 32, "unit": "%"}, {"measurement": "Percentage of time spent in the area closest to the light source", "setting": "naive rats (Wistar); 5 mg/kg i.p., Dark 2 (Relief)", "result": 30, "unit": "%"}, {"measurement": "Percentage of time spent in the area closest to the light source", "setting": "naive rats (Wistar); 5 mg/kg i.p., Light 600 lux (Stress)", "result": 22, "unit": "%"}, {"measurement": "anxiety effect (avoidance of the most strongly illuminated area)", "setting": "naive rats (Wistar); 10 mg/kg dose", "result": "completely eliminated"}, {"measurement": "Percentage of time spent in the area closest to the light source", "setting": "naive rats (Wistar); 10 mg/kg i.p., Dark 1 (Habituation)", "result": 29, "unit": "%"}, {"measurement": "Percentage of time spent in the area closest to the light source", "setting": "naive rats (Wistar); 10 mg/kg i.p., Dark 2 (Relief)", "result": 34, "unit": "%"}, {"measurement": "Percentage of time spent in the area closest to the light source", "setting": "naive rats (Wistar); 10 mg/kg i.p., Light 600 lux (Stress)", "result": 30, "unit": "%"}, {"measurement": "Percentage of time spent in the area closest to the light source", "setting": "naive rats (Wistar); 20 mg/kg i.p., Dark 1 (Habituation)", "result": 39, "unit": "%"}, {"measurement": "Percentage of time spent in the area closest to the light source", "setting": "naive rats (Wistar); 20 mg/kg i.p., Dark 2 (Relief)", "result": 29, "unit": "%"}, {"measurement": "Percentage of time spent in the area closest to the light source", "setting": "naive rats (Wistar); 20 mg/kg i.p., Light 600 lux (Stress)", "result": 21, "unit": "%"}, {"measurement": "affinity with the NMDA receptor (measured in Ki)", "setting": "NMDA receptor", "result": "same order of magnitude as that of memantine"}]}
